According to patent publication US20220047476A1, “A METHOD FOR FIGHTING FEMALE BODY ODORS” (SYMRISE AG, priority 2018, published 2022):

Experiments:
[1] = Malodor reduction via sensory testing, feminine (vaginal) odor model; parameters: species or system human; settings: trained female panel N=9, 1=no odor to 10=strongest imaginable, averaged, malodor only 6.0, 0.0% control 5.3
Protocol: (§1) A trained sensory panel consisting of females, (N=9) ages 40-55 years old evaluated the samples. Panelists are regularly trained on fragrance and malodor intensity scoring and must pass routine screening and calibration tests to remain on the panel. Panelist onboarding and orientation was performed following ASTM Committee E-18 on Sensory Evaluation of Materials and Products, Guidelines for the Selection and Training of Sensory Panel Members (ASTM STP758, American Society for Testing and Materials, 1981, pp. 1-35). Panelists were selected based on health, interest, availability, descriptive and scaling ability, olfactory acuity, attitude and personality. Panelists are introduced to intensity measurement using selected intensity standards and exercised in the use of the scaling system to quantify intensity.
(§2) Training and evaluation was performed for six weeks following orientation. Each panelist completed practice sessions where they were exposed to different types of odors (malodor, fragrance, etc.) and different substrates (fabric, clothing, blotter cards, jars, etc.). Panelist inclusion was dependent upon panel administrator discussions, specific response evaluation, and comparison to standards.
(§3) In this example, feminine wash was formulated with various concentrations of 5-methyl-2-(1-methylethyl)-cyclohexanol acetate, as shown in Table 1 below. A sample without of 5-methyl-2-(1-methylethyl)-cyclohexanol acetate was used as a control.
(§4) The sweat malodor model is comprised of malodors including 3-methyl-2-hexenoic acid and 3-mercapto-3-methyl-1-hexanol. The feminine odor model contains acetic acid, 2-methyl-butyric acid, valeric acid and trimethyl amine. The trained panelists subjectively evaluated the samples using a 10-point scoring scale (1=no odor to 10=strongest imaginable). Panelists are first shown the malodor only sample as a reference, and asked to rate its odor intensity. Panelists are then shown the test samples in a blinded fashion labelled with a 3 digit code. There is a 45 second wait time between samples to prevent olfactive fatigue. […]

[2] = Malodor reduction via sensory testing, sweat malodor model; parameters: species or system human; settings: trained female panel N=9, 1=no odor to 10=strongest imaginable, averaged, malodor only 5.8, 0.0% control 5.1
Protocol: as §1, §2, §3, §4

[3] = Vapor pressure reduction: malodors in closed flask headspace, cold finger collection, GC FID; format: physicochemical; settings: with 1 g active in separate dish, sealed 500 mL flask, four hours, cold finger 10° C.
Protocol: Two 500 mL Erlenmeyer flasks were prepared with a blend of five malodor substances (200 mg total; indole, methyl phenyl acetate, skatol, p-cresyl isovalerate, isoamyl phenylacetate) in a small dish. To one flask, in a separate small dish, was added 1 g of 5-methyl-2-(1-methylethyl)-cyclohexanol acetate. Each flask was sealed with a cold finger through which water at 10° C. was passed. After four hours, the flasks were opened and the cold fingers were washed with diethyl ether. This eluent is representative of the headspace above the sample, and quantifies the malodor concentration in the air. The collected diethyl ether fractions were made to a standard volume and analyzed by gas chromatography (GC FID). This experiment is meant to analyze the interaction of malodor with 5-methyl-2-(1-methylethyl)-cyclohexanol acetate in a way that mimics a consumer's experience.

CC(=O)O[C@@H]1C[C@H](C)CC[C@H]1C(C)C [5-methyl-2-(1-methylethyl)-cyclohexanol acetate]
Feminine (Vaginal) Malodor intensity rating from 1 to 10 ([1]; 0.1% active in feminine wash): 4.5 | Feminine (Vaginal) Malodor intensity rating from 1 to 10 ([1]; 0.2% active in feminine wash): 3.3 | Feminine (Vaginal) Malodor intensity rating from 1 to 10 ([1]; 0.5% active in feminine wash): 2.6 | Sweat Malodor intensity rating from 1 to 10 ([2]; 0.1% active in feminine wash): 4.8 | Sweat Malodor intensity rating from 1 to 10 ([2]; 0.2% active in feminine wash): 3.0 | Sweat Malodor intensity rating from 1 to 10 ([2]; 0.5% active in feminine wash): 2.2 | Relative Amount of Malodor: skatol ([3]; without active 0.06): 0.0003 | Relative Amount of Malodor: p-cresyl isovalerate ([3]; without active 0.10): 0.0002 | Relative Amount of Malodor: isoamyl phenylacetate ([3]; without active 1.20): 0.0000 | Relative Amount of Malodor: indole ([3]; without active 1.30): 0.0300 | Relative Amount of Malodor: methyl phenyl acetate ([3]; without active 1.50): 0.0000
